According to patent EP4119145A1, “COMPOUNDS FOR THE TREATMENT OF COVID-19” (priority 2021, dated 2023):
pIC50: −log10 of the molar value. Structures can show the parent of a compound that is named as a salt. Where two headings read alike, the source gives them in different places.

Target: SARS-CoV-2 PL-Pro (Severe acute respiratory syndrome coronavirus 2, UniProt P0DTD1)
Test: biochemical
Settings: for inhibition at 20 µM: read-out: PLPro Inhibition [%] Primary Screen (20 µM)
[1] = dose response, 0.014 µM to 20 µM, 8 concentration points, read-out: IC50

Work on `Cc1nc2c(=O)n(C)c(=O)nc-2n(C)n1` [Compound 2, 1,3,6-Trimethylpyrimido[5,4-e][1,2,4]triazine-5,7(1H,6H)-dione] yielded a pIC50 [1] of 7.13 and an inhibition at 20 µM of 181%.
For `Cc1cc2nc3c(=O)[nH]c(=O)nc-3n(C)c2cc1C=O` [Compound 3, 7,10-Dimethyl-2,4-dioxo-2,3,4,10-tetrahydrobenzo[g]pteridine-8-carbaldehyde], the pIC50 [1] was 6.40 and the inhibition at 20 µM was 119%.
Molecule `O=C1C(=O)c2cc([N+](=O)[O-])ccc2-c2ccccc21` [Compound 4, 2-Nitrophenanthrene-9,10-dione] has a pIC50 [1] of 6.89 and an inhibition at 20 µM of 186%.
`CC(C)(C)C(=O)Nc1ccc2c(c1)C(=O)C(=O)c1ccccc1-2` [Compound 5, N-(9,10-Dioxo-9,10-dihydrophenanthren-2-yl)-2,2-dimethylpropionamide] gave a pIC50 [1] of 6.61 and an inhibition at 20 µM of 184%.
`O=C1C(=O)c2ccccc2-c2ccccc21` [Compound 6, phenanthrene-9,10-dione] was tested, and the pIC50 [1] was 6.30 and the inhibition at 20 µM was 181%.
With `Cc1c(S(=O)(=O)O)oc2c1C(=O)C(=O)c1c-2ccc2c1CCCC2(C)C` [Compound 8, 1,6,6-Trimethyl-10,11-dioxo-6,7,8,9,10,11-hexahydrophenanthro[1,2-b]furan-2-sulfonic acid sodium salt] the inhibition at 20 µM was 124%.
With `CC1(C)C(=O)N=C2C1=C(O)C(=O)c1ccccc12` [Compound 9, 4-Hydroxy-3,3-dimethyl-3,5-dihydro-2H-benzobenzo[g]indole-2,5-dione] the pIC50 [1] was 6.41 and the inhibition at 20 µM was 155%.
Molecule `CC1(C)CCC2=C(O1)c1ccccc1C(=O)C2=O` [Compound 10, 2,2-Dimethyl-3,4-dihydro-2H-benzo[h]1-benzopyrane-5,6-dione] has a pIC50 [1] of 5.35 and an inhibition at 20 µM of 146%.
`Cc1cccc2c1ccc1c3c(c(=O)oc(=O)c12)[C@@H](C)CO3` [Compound 11, (4R)-4,9-Dimethyl-4,5-dihydrofuro[3,2-c]naphtho[2,1-e]oxepine-1,3-dione] was tested, and the pIC50 [1] was 6.04 and the inhibition at 20 µM was 80.7%.
`O=C1C(Cl)=C(NCCN2CCOCC2)C(=O)c2ncccc21` [Compound 12, 6-Chloro-7-[2-(4-morpholinyl)ethylamino]-5,8-dihydroquinoline-5,8-dione] was tested, and the pIC50 was 6.66 and the inhibition at 20 µM was 151%.
`Cc1ccc(NC2=CC(=O)c3sc(C)nc3C2=O)cc1` [Compound 13, 2-methyl-5-(4-methylanilino)-1,3-benzothiazole-4,7-dione] was tested, and the pIC50 [1] was 6.59 and the inhibition at 20 µM was 160%.
In the case of `CC[N+](C)(CC)CCC[n+]1c(-c2ccccc2)c2cc(N)ccc2c2ccc(N)cc21` [Compound 14, 3,8-Diamino-5-(3-(diethyl(methyl)ammonio)propyl)-6-phenylphenanthridin-5-ium iodide], the pIC50 was 6.62 and the inhibition at 20 µM was 136%.
In the case of `CCOC(=O)C1=C(C)N=c2s/c(=C\c3ccc(OCC(=O)O)cc3)c(=O)n2C1c1ccc(SC)cc1` (centres unmarked) [Compound 15, 2-[4-[(Z)-[6-ethoxycarbonyl-7-methyl-5-(4-methylsulfanylphenyl)-3-oxo-5H-[1,3]thiazolo[3,2-a]pyrimidin-2-ylidene]methyl]phenoxy]acetic acid], the pIC50 [1] was 5.50 and the inhibition at 20 µM was 82.8%.
In the case of `CC(=NNC(=N)N)c1cc(NC(=O)CCCCCCCCC(=O)Nc2cc(C(C)=NNC(=N)N)cc(C(C)=NNC(=N)N)c2)cc(C(C)=NNC(=N)N)c1` [Compound 16, N,N'-Bis[3,5-bis[1-(2-amidinohydrazono)ethyl]phenyl]decanediamide], the pIC50 [1] was 5.92 and the inhibition at 20 µM was 140%.
For “cobalt(3+);[(2R,3S,4R,5S)-5-(5,6-dimethylbenzimidazol-1-yl)-4-hydroxy-2-(hydroxymethyl)oxolan-3-yl][(2R)-1-[3-[(1R,2R,3R,4Z,7S,9Z,12S,13S,14Z,17S,18S,19R)-2,13,18-tris(2-amino-2-oxoethyl)-7,12,17-tris(3-amino-3-oxopropyl)-3,5,8,8,13,15,18,19-octamethyl-2,7,12,17-tetrahydro-1H-corrin-21-id-3-yl]propanoylamino]propan-2-yl] phosphate;cyanide [Compound 17]”, the “PLPro Inhibition [%] Primary Screen (20 µM)” value was 141.27% and the pIC50 (read-out: IC50) was 5.54.
